Some results are limits rather than exact numbers.

For the test, the target named is EGFR (human) (UniProt P00533). To be noted: a431.
EGFR (human), sequence (P00533 whole entry, looked up): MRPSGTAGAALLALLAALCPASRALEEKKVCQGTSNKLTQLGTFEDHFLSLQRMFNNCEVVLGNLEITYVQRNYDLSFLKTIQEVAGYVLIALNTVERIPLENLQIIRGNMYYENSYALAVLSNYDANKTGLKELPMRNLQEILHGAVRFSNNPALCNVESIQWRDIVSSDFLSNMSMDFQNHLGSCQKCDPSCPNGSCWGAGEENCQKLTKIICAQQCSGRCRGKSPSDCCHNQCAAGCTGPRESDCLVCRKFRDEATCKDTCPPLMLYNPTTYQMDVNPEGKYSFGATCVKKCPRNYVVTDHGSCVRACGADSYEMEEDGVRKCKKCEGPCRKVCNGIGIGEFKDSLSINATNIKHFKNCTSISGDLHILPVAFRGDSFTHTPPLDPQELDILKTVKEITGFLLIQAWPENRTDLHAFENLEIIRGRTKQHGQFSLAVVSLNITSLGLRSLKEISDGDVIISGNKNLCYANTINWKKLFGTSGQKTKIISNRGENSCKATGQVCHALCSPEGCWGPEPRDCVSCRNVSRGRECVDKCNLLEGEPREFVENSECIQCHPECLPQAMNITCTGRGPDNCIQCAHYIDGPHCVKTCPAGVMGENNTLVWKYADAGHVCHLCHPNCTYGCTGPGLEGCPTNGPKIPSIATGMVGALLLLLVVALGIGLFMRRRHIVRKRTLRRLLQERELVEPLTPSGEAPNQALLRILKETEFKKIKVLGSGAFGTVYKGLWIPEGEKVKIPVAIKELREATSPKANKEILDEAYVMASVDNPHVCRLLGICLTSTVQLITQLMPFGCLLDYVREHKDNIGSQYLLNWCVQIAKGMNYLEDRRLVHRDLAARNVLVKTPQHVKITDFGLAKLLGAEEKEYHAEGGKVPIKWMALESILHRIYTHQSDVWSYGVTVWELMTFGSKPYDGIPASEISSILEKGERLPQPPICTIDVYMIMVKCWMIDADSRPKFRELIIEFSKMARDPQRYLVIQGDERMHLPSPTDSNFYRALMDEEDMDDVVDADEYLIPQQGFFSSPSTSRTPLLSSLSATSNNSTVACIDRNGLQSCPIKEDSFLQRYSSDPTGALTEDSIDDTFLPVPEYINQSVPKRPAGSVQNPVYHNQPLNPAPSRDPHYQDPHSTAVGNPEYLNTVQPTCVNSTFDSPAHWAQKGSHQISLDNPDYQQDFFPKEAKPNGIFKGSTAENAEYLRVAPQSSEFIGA
In general, IC50 refers to the midpoint of a concentration-inhibition curve. Higher therefore signals a need for much substance. The molecule `C/C(=C\c1coc2nc(N)nc(N)c12)c1ccc(Cl)c(Cl)c1Cl` had an IC50 above 50 µM. The figure for `C/C(=C/c1coc2nc(N)nc(N)c12)c1ccc(Cl)c(Cl)c1Cl.C/C(=C\c1coc2nc(N)nc(N)c12)c1ccc(Cl)c(Cl)c1Cl` is above 50 µM; for `C/C(=C/c1coc2nc(N)nc(N)c12)c1ccc(Cl)cc1.C/C(=C\c1coc2nc(N)nc(N)c12)c1ccc(Cl)cc1` it is above 50 µM. Turning to `C/C(=C\c1coc2nc(N)nc(N)c12)c1cccc(Cl)c1`, the IC50 was above 50 µM. `C/C(=C/c1coc2nc(N)nc(N)c12)c1ccc2ccccc2c1.C/C(=C\c1coc2nc(N)nc(N)c12)c1ccc2ccccc2c1`: the IC50 was above 50 µM. The molecule `COc1ccccc1/C(C)=C/c1coc2nc(N)nc(N)c12` gave a 50% inhibitory concentration (IC50) above 50 µM. `COc1ccc(OC)c(/C(C)=C/c2coc3nc(N)nc(N)c23)c1` came in with an IC50 above 50 µM.

With `C/C(=C/c1coc2nc(N)nc(N)c12)c1ccc(-c2ccccc2)cc1.C/C(=C\c1coc2nc(N)nc(N)c12)c1ccc(-c2ccccc2)cc1`, the IC50 was above 50 µM.

Molecule `C/C(=C\c1coc2nc(N)nc(N)c12)c1cc(Cl)ccc1Cl` had an IC50 above 50 µM. The figure for `C/C(=C/c1coc2nc(N)nc(N)c12)c1cc(Cl)ccc1Cl` is above 50 µM; for `C/C(=C/c1coc2nc(N)nc(N)c12)c1ccc(Cl)c(Cl)c1.C/C(=C\c1coc2nc(N)nc(N)c12)c1ccc(Cl)c(Cl)c1` it is above 50 µM; for `C/C(=C\c1coc2nc(N)nc(N)c12)c1ccc(Cl)cc1Cl` it is above 50 µM. `C/C(=C\c1coc2nc(N)nc(N)c12)c1ccc2c(c1)Cc1ccccc1-2`: the IC50 is above 50 µM. The figure for `COc1cc(/C(C)=C/c2coc3nc(N)nc(N)c23)cc(OC)c1OC.COc1cc(/C(C)=C\c2coc3nc(N)nc(N)c23)cc(OC)c1OC` is above 50 µM.
